Results published in patent US20250171457A1, “NITROGEN-CONTAINING HETEROCYCLIC COMPOUND HAVING NRF2 ACTIVATION EFFECT” (CHUGAI SEIYAKU KABUSHIKI KAISHA, priority 2022, published 2025).
pEC50: −log10 of the molar value. Where two headings read alike, the source gives them in different places.

Columns and labels:
[1] = tested on: Nrf2 transcriptional activity (pARE-Luc reporter) in HepG2 cells; experiment: In vitro Nrf2 transcriptional activity measurement by ARE-dependent reporter assay in HepG2 cell; assay type: cell-based, human
Method in brief: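 Luminescence readout (Bright-Glo) after 4 h, 37° C compound exposure of HepG2 cells carrying the ARE-luciferase vector pGL4.37. Each well converted to % response versus reference compound at 3.75 μM, and EC50 derived from dose-response curves.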

[2] = tested on: Nqo1 (NAD(P)H quinone dehydrogenase 1) mRNA, Nrf2 downstream molecule; experiment: In vivo Nrf2 transcriptional activity measurement (Nqo1 mRNA in organs by qPCR); conditions: Mus musculus, C57BL/6J mice, 7 to 8 hours
Procedure: Test Example 2: In Vivo Nrf2 Transcriptional Activity Measurement
A test compound (solvent: 10 vol % dimethyl sulfoxide/50 mM glycine/32 mM sodium hydroxide/physiological saline) was administered to C57BL/6J mice (7-8 weeks old), which were euthanized by whole blood collection under isoflurane anesthesia 7 to 8 hours later, followed by the collection of various organs. mRNA was purified from the collected organs, and the mRNA expression level of Mapk1 as an internal control and the mRNA expression level of Nqo1 (NAD(P)H quinone dehydrogenase 1) as a typical Nrf2 downstream molecule were each measured by qPCR. The Nqo1 mRNA expression level was quantified by comparative CT, and an expression level ratio to a non-administration group was calculated. The administration of the test compound elevated the Nqo1 mRNA expression level in the various organs, confirming that the test compound also has a Nrf2-activating effect in vivo.

[3] = Homo sapiens, HepG2 cells transfected with pARE-Luc, 4 hours at 37° C., luciferase activity of Example 1-54 or Example 17-23 at 3.75 μM defined as 100%
[4] = ip, Intraperitoneal, kidney, read-out: Nqo1 mRNA expression level ratio to non-administration group, Kidney
[5] = ip, Intraperitoneal, liver, read-out: Nqo1 mRNA expression level ratio to non-administration group, Liver
[6] = ip, Intraperitoneal, lung, read-out: Nqo1 mRNA expression level ratio to non-administration group, Lung
[7] = Oral, kidney, read-out: Nqo1 mRNA expression level ratio to non-administration group, Kidney
[8] = Oral, liver, read-out: Nqo1 mRNA expression level ratio to non-administration group, Liver
[9] = Oral, lung, read-out: Nqo1 mRNA expression level ratio to non-administration group, Lung
[10] = HepG2 cells transfected with pARE-Luc, 4 hours at 37° C., luciferase activity of Example 1-54 or Example 17-23 at 3.75 μM defined as 100%, second printing of Table 20-1

Structure (SMILES) | pEC50 [1, 3] | fold induction at 15 mg/kg [2, 4] | fold induction at 15 mg/kg [2, 5] | fold induction at 15 mg/kg [2, 6] | fold induction at 10 mg/kg [2, 4] | fold induction at 10 mg/kg [2, 5] | fold induction at 10 mg/kg [2, 6] | fold induction at 30 mg/kg [2, 7] | fold induction at 30 mg/kg [2, 8] | fold induction at 30 mg/kg [2, 9] | further results
COC1CC2(C1)CN(c1ccc(C(=O)N3COc4c(cccc4-c4cc(N5C6CCC5COC6)c(C(=O)O)cc4F)C3)c(Cl)c1)C2 [Compound 1-88, 4-[3-[2-Chloro-4-(6-methoxy-2-azaspiro[3.3]heptan-2-yl)benzoyl]-2,4-dihydro-1,3-benzoxazin-8-yl]-5-fluoro-2-(3-oxa-8-azabicyclo[3.2.1]octan-8-yl)benzoic acid] | 8.68 | 3 | 4.3 | 6.1 |  |  |  |  |  |  | fold induction at 15 mg/kg [2, 7]: 3.4; fold induction at 15 mg/kg [2, 8]: 5.4; fold induction at 15 mg/kg [2, 9]: 8.9
COc1ccc(-c2cc(Cl)c(C(=O)N3COc4c(cccc4-c4cc(N5C6CCC5COC6)c(C(=O)O)cc4F)C3)c(Cl)c2)cn1 [Compound 2-2, 4-[3-[2,6-Dichloro-4-(6-methoxypyridin-3-yl)benzoyl]-2,4-dihydro-1,3-benzoxazin-8-yl]-5-fluoro-2-(3-oxa-8-azabicyclo[3.2.1]octan-8-yl)benzoic acid] | 8.19 |  |  |  | 5.3 | 5.8 | 17 |  |  |  | 
CCN1CCN(c2cc(Cl)c(C(=O)N3COc4c(cccc4-c4cc(N5C6CCC5COC6)c(C(=O)O)cc4F)C3)c(Cl)c2)CC1 [Compound 4-8, 4-[3-[2,6-Dichloro-4-(4-ethylpiperazin-1-yl)benzoyl]-2,4-dihydro-1,3-benzoxazin-8-yl]-5-fluoro-2-(3-oxa-8-azabicyclo[3.2.1]octan-8-yl)benzoic acid] | 8.24 |  |  |  | 3.4 | 6.7 | 6.2 |  |  |  | 
COCCOc1cc(Cl)c(C(=O)N2COc3c(cccc3-c3cc(N4C5CCC4COC5)c(C(=O)O)cc3F)C2)c(Cl)c1 [Compound 4-37, 4-[3-[2,6-Dichloro-4-(2-methoxyethoxy)benzoyl]-2,4-dihydro-1,3-benzoxazin-8-yl]-5-fluoro-2-(3-oxa-8-azabicyclo[3.2.1]octan-8-yl)benzoic acid] | 8.20 |  |  |  | 4 | 8 | 5.4 |  |  |  | 
COC1(OC)CN(c2cc(Cl)c(C(=O)N3COc4c(cccc4-c4cc(N5C6CCC5COC6)c(C(=O)O)cc4F)C3)c(Cl)c2)C1 [Compound 5-1, 4-[3-[2,6-Dichloro-4-(3,3-dimethoxyazetidin-1-yl)benzoyl]-2,4-dihydro-1,3-benzoxazin-8-yl]-5-fluoro-2-(3-oxa-8-azabicyclo[3.2.1]octan-8-yl)benzoic acid] | 8.80 |  |  |  | 4.4 | 6.8 | 19 | 5.1 | 3.9 | 17 | 
O=C(O)c1cc(F)c(-c2cccc3c2OCN(C(=O)c2c(Cl)cc(N4CC5(C4)OCCCO5)cc2Cl)C3)cc1N1C2CCC1COC2 [Compound 5-2, 4-[3-[2,6-Dichloro-4-(5,9-dioxa-2-azaspiro[3.5]nonan-2-yl)benzoyl]-2,4-dihydro-1,3-benzoxazin-8-yl]-5-fluoro-2-(3-oxa-8-azabicyclo[3.2.1]octan-8-yl)benzoic acid] | 8.89 |  |  |  | 4.3 | 6.9 | 20 | 4 | 6.9 | 20 | 
CC1COC2(CN(c3cc(Cl)c(C(=O)N4COc5c(cccc5-c5cc(N6C7CCC6COC7)c(C(=O)O)cc5F)C4)c(Cl)c3)C2)OC1 [Compound 5-7, 4-[3-[2,6-Dichloro-4-(7-methyl-5,9-dioxa-2-azaspiro[3.5]nonan-2-yl)benzoyl]-2,4-dihydro-1,3-benzoxazin-8-yl]-5-fluoro-2-(3-oxa-8-azabicyclo[3.2.1]octan-8-yl)benzoic acid] | 8.77 |  |  |  | 4 | 5.4 | 18 |  |  |  | 
CC1(C)COC2(CN(c3cc(Cl)c(C(=O)N4COc5c(cccc5-c5cc(N6C7CCC6COC7)c(C(=O)O)cc5F)C4)c(Cl)c3)C2)OC1 [Compound 5-9, 4-[3-[2,6-Dichloro-4-(7,7-dimethyl-5,9-dioxa-2-azaspiro[3.5]nonan-2-yl)benzoyl]-2,4-dihydro-1,3-benzoxazin-8-yl]-5-fluoro-2-(3-oxa-8-azabicyclo[3.2.1]octan-8-yl)benzoic acid] |  | 3.7 | 6.7 | 15 |  |  |  | 5.2 | 6 | 19 | pEC50 [1, 10]: 8.77
O=C(O)c1cc(F)c(-c2cccc3c2OCN(C(=O)c2c(Cl)cc(N4CC5(C4)CC4(C5)OCCCO4)cc2Cl)C3)cc1N1C2CCC1COC2 [Compound 5-10, 4-[3-[2,6-Dichloro-4-(7,11-dioxa-2-azadispiro[3.1.56.14]dodecan-2-yl)benzoyl]-2,4-dihydro-1,3-benzoxazin-8-yl]-5-fluoro-2-(3-oxa-8-azabicyclo[3.2.1]octan-8-yl)benzoic acid] | 8.49 | 5.1 | 5.4 | 17 |  |  |  |  |  |  | 
COC1(OC)CN(c2cc(Cl)c(C(=O)N3COc4c(cccc4-c4ccc(C(=O)O)c(N5C6CCC5COC6)c4)C3)c(Cl)c2)C1 [Compound 5-16, 4-[3-[2,6-Dichloro-4-(3,3-dimethoxyazetidin-1-yl)benzoyl]-2,4-dihydro-1,3-benzoxazin-8-yl]-2-(3-oxa-8-azabicyclo[3.2.1]octan-8-yl)benzoic acid] | 8.46 |  |  |  |  |  |  |  |  |  | fold induction at 15 mg/kg [2, 7]: 3.6; fold induction at 15 mg/kg [2, 8]: 4.8; fold induction at 15 mg/kg [2, 9]: 14
O=C(O)c1cc(F)c(-c2cccc3c2OCN(C(=O)c2c(Cl)cc(N4CC5(CN(CC(F)F)C5)C4)cc2Cl)C3)cc1N1C2CCC1COC2 [Compound 7-2, 4-[3-[2,6-Dichloro-4-[6-(2,2-difluoroethyl)-2,6-diazaspiro[3.3]heptan-2-yl]benzoyl]-2,4-dihydro-1,3-benzoxazin-8-yl]-5-fluoro-2-(3-oxa-8-azabicyclo[3.2.1]octan-8-yl)benzoic acid] | 8.34 | 4.3 | 6.2 | 11 |  |  |  |  |  |  | 
COC1CC2(C1)CN(c1cc(Cl)c(C(=O)N3COc4c(cccc4-c4cc(N5C6CCC5COC6)c(C(=O)O)cc4F)C3)c(Cl)c1)C2 [Compound 13-16, 4-[3-[2,6-Dichloro-4-(6-methoxy-2-azaspiro[3.3]heptan-2-yl)benzoyl]-2,4-dihydro-1,3-benzoxazin-8-yl]-5-fluoro-2-(3-oxa-8-azabicyclo[3.2.1]octan-8-yl)benzoic acid] |  | 4.8 | 6.6 | 20 |  |  |  | 4.5 | 6 | 22 | pEC50 ([1]; HepG2 cells, pARE-Luc reporter, 4 hours, 100% = Example 1-54 or Example 17-23 at 3.75 μM): 9.02
C[C@@H]1CN(c2ccc(C(=O)N3COc4c(cccc4-c4cc(N5C6CCC5COC6)c(C(=O)O)cc4F)C3)c(Cl)c2)[C@H](C)CN1C [Compound 13-21, 4-[3-[2-Chloro-4-[(2R,5R)-2,4,5-trimethylpiperazin-1-yl]benzoyl]-2,4-dihydro-1,3-benzoxazin-8-yl]-5-fluoro-2-(3-oxa-8-azabicyclo[3.2.1]octan-8-yl)benzoic acid] |  |  |  |  |  |  |  | 2.9 | 4.9 | 3.6 | pEC50 [1, 10]: 8.64
